Measurements reported in article PMC5431684, “Zwitterionic near infrared fluorescent agents for noninvasive real-time transcutaneous assessment of kidney function” (Chemical Science, 2017).
Values joined by “and” are separate entries in the source; they are usually repeats but may differ in a detail not shown here. Equal entries are not always repeated. Where two headings read alike, the source gives them in different places.

What was measured:
[1] = Transcutaneous measurement of elimination kinetics in healthy rats; assay type: in vivo, Sprague Dawley rats; conditions: for Transcutaneous elimination (clearance) curve, in words: i.v. injection
Procedure: (§1) The principles and methods of the transcutaneous technique are described in Fig. S10. ^† Firstly, as a control, IRDye800CW was chosen to be injected intravenously into rats and its elimination curves were measured transcutaneously. […] A long retention time of IRDye800CW in vivo was attributed to its higher PPB (41%) and negative charge feature, leading to skin accumulation and slow renal excretion. […] To assess whether the anionic agent ABANCY-HPβCD is reabsorbed or secreted by organic anion transporter (OAT) proteins in the kidney tubules, probenecid, an inhibitor of OAT proteins,[18] was administered (30 min prior to injection of ABANCY-HPβCD) to block tubular reabsorption and the secretion pathway, then, elimination curves were measured for the same rats. […] We also measured the cationic HPβCD based agent in the same manner and the results are similar to those of anionic HPβCD based agents. Next, the free dye ABZWCY was injected intravenously and its elimination curves were also recorded transcutaneously. […] This is in agreement with their similar PPB values (∼20%). To determine whether ABZWCY has tubular reabsorption or secretion in addition to filtration, probenecid was administered to block tubular reabsorption and the secretion pathway. […]
(§2) 8. Principle and methods for transcutaneous measurements of kidney function The transcutaneous assessment of renal function is based on the measurement of the fluorescence signal of a marker through the skin. A miniaturized transcutaneous device is comprised of two light emitting diodes (LEDs) and one photodiode (Figure S10a and 10b). The LEDs can blink every few seconds to excite a fluorescent marker using excitation wavelength of 700 nm. The fluorescent signal will be recorded by detecting the emission intensity of a fluorescent marker at 790 nm. Data are stored in the device and can be read out after measurement.[6] The clearance half-life of fluorescent agents was calculated by software, which was developed by the Institute of Medical Technology of the University of Heidelberg.[7] For this a 3-exponential function was fitted to the measured elimination curve, the peak of the curve was supposed to be 100%. Also a 1-exponential function was applied from 50% to 15% of the peak […]
(§3) Figure. S10. (a) Transcutaneous device and battery used for the transcutaneous measurement, the photodiodes and LEDs in the device. (b) A schematic overview of the excitation and emission light between a transcutaneous device and fluorescent agents in capillary vessel after injection. (c-g) The fixation procedures of a transcutaneous device on the skin and measurements in a […]
(§4) Healthy Sprague Dawley rats (Body weight: 250-300 g, 8-10 weeks) were anesthetized for a short period with Isoflurane (Forene®, AbbVie, Illinois, USA; Dosage: 5 %; Flow(O2): 5 L/min) in order to fix the transcutaneous device on the back of rats. The back of the animals was depilated with an electric shaver (Figure 10c-g). After a baseline measurement for around 5 min, a fluorescent agent in saline (DeltaSelect, GmbH, Rimbach, Germany) was injected as a bolus by tail vein injection. […] The devices were removed and the data were read out after 120 min of transcutaneous measurement. The clearance half-life of fluorescent agents was calculated by software. […]

[2] = tested on: plasma protein; conditions: cited from earlier work
[3] = tested on: organic anion transporter (OAT) proteins; experiment: Transcutaneous measurement of elimination kinetics in healthy rats; assay type: in vivo, Sprague Dawley rats; conditions: Sprague Dawley, rat, skin (transcutaneous fluorescence signal), ip; healthy rats, 50 mg/kg probenecid i.p. 30 min prior to injection, transcutaneous; read-out: T 1/2 with probenecid (clearance half-life)
Procedure: as §1, §2, §3, §4

[4] = Urinary recovery of injected dose (metabolic cages); assay type: in vivo, Sprague Dawley rats
Procedure: With this in mind, we investigated the recoveries of injected doses using in vivo experiments with metabolic cages. High urinary recoveries were determined for the free dye ABZWCY and its mixture with HPβCD (99.4 ± 4.8% and 96.5 ± 5.8%, respectively, Fig. 4 and Tables 2 and S6 ^†). Similar tendencies of urinary recoveries of ABZWCY-HPβCD and AAZWCY-HPβCD with values of 97 ± 3.9% and 103.3 ± 4.2%, respectively, were also observed (Fig. 4, and Tables 2 and S7 ^†). Indeed, urinary recoveries of the given dose were almost completed at 9 h post-injection for ABZWCY-HPβCD and AAZWCY-HPβCD, which is faster than the free dye ABZWCY and in agreement with their shorter clearance half-life.
All experiments were conducted in accordance with the German Animal Protection Law and approved by the local authority (Regierungspräsidium Nordbaden, Karlsruhe Germany in agreement with EU guideline 2010/63/EU). […]
10. Urinary recovery of injected dose in urine studies
Recovery of the injected dose in urine studies were conducted in conscious, healthy Sprague Dawley rats (Body weight: 250-300 g). The corresponding test agents with corresponding dosage (ABZWCY: 2.5 mg/kg, ABZWCY mixed with HPβCD: 2.5 mg/kg mixed with 22.5 mg/kg (HPβCD), ABZWCY-HPβCD and AAZWCY-HPβCD: 50 mg/kg) were administered by tail vein injection. Urine was collected using metabolic cages in intervals of 1, 2, 3, 6, 9, 24 h after intravenous injection of agents into rats. The samples were stored at -20°C until they were analyzed. The urine samples were centrifuged for 8 min at 13000 ×g and then filtered by 0.22 μm syringe filter. A series of working solution of each agent with concentrations between 0.02 mg/mL and 2 mg/mL were prepared. Appropriate volumes of the working solutions were added to blank urine and fluorescent intensity of those mixtures were measured in order to obtain an external calibration curve. Quantification of each of the agents in urine at each time point was performed via HPLC analysis and fluorescence intensity detection. The concentration in urine at each time point was calculated based on the external calibration standards curve between fluorescence intensity and the concentration of each of the agents.
Considering biological components within urine may interfere with the fluorescent intensity of agents, the fluorescent intensity of agent were tested to study whether there is difference in urine and PBS, the emission intensity and calibration curve are compared (Figure S11). The results […]
This slightly difference can explained the urinary recoveries have some trial a little over 100% (Table S6 and S7), which can be found in other literatures studies. […]

[5] = Plasma protein binding (PPB) by equilibrium dialysis; assay type: in vitro ADME, Sprague Dawley rat; conditions: Sprague Dawley, rat, plasma (Li-Heparin), equilibrium dialysis of PBS against dye-plasma stock, 37°C, UV absorption
From the text: (§5) The interaction between fluorescent dyes and plasma proteins is particularly important as it affects the capability of the dyes as GRF agents in the following aspects: bio-distribution and clearance pathways as well as the rate of excretion in vivo.[15] […] ABCACY and AACACY display 54.5% and 60% PPB, respectively. […] Additionally, PPB is not only dependent on the dye hydrophilicity, but is also related to the molecular charge number and distribution. Since albumin is alkalotic, acidic agents will preferentially bind to albumin, then to lipoprotein after albumin becomes saturated. Basic agents will bind to the acidic alpha-1 acid glycoprotein.[17] Thus, anionic and cationic compounds are more inclined to bind to proteins than zwitterionic compounds. Therefore, we will mainly focus on zwitterionic compounds in the following parts.
5. […]
(§6) PPB measurements were performed by equilibrium dialysis of PBS against dye-protein stock solution (or control stock solution) using a two-chamber dialysis set-up. After 24 hours the absorption of each of the dyes or agents in PBS and plasma were determined in three independent measurements by both absorption spectroscopy and fluorescence spectroscopy in a microplate reader. The concentrations of each of the dyes or agents were calculated on the basis of the corresponding molar absorption coefficients. […] PPB in percent [%] was determined by averaging three independent measurements and following the equation of Lambert Beer law: […]
(§7) ABZWCY-HPβCD (1 mg/mL in PBS), SD rat plasma (50% in PBS), ABZWCY-HPβCD (1 mg/mL) mixed with SD rat plasma (50% in PBS) were prepared and filtered through a sterile 0.22 μm filter before analysis. […] The measurements were carried out in quadratic cells and analyzed the scattered light at an angle of 90° at a controlled temperature (25 °C). […] The apparent hydrodynamic radius was calculated according to the Stokes-Einstein […]

[6] = tested on: Sprague Dawley rat plasma; experiment: as above; assay type: in vitro ADME; conditions: equilibrium dialysis of PBS against dye-plasma stock, 37°C, 24 hours, UV absorption
From the text: as §5
5. […]
as §6, §7

In the case of `CC1(C)C(/C=C/C2=C(Oc3ccc(S(=O)(=O)O)cc3)C(=C/C=C3/N(CCCCS(=O)(=O)O)c4ccc(S(=O)(=O)[O-])cc4C3(C)C)/CCC2)=[N+](CCCCCC(=O)O)c2ccc(S(=O)(=O)O)cc21` [IRDye800CW, reference compound], the “Transcutaneous elimination (clearance) curve, in words” value ([1]; healthy rats) is given as “no decay even at 90 min post-injection” and the PPB ([2]; previous study of the authors) is given as 41%.

In the case of `CNC(=O)c1c(I)c(NC(C)=O)c(I)c(C(=O)O)c1I` [iothalamate], the PPB ([2]; 'gold standard' renal function agent) is given as 9.5%.

In the case of `CC1(C)C(/C=C/C2=C(Nc3ccc(CCC(=O)O)cc3)C(=C/C=C3/N(CCC[N+](C)(C)C)c4ccc(S(=O)(=O)O)cc4C3(C)C)/CCC2)=[N+](CCC[N+](C)(C)C)c2ccc(S(=O)(=O)O)cc21` [ABZWCY], the half-life ([1]; Sprague Dawley, rat, skin (transcutaneous fluorescence signal), iv, 2.5 mg/kg, healthy rats 8-10 weeks, i.v. bolus, transcutaneous measurement, read-out: T 1/2 without probenecid (clearance half-life)) is reported as 52.6 ± 8.8 min, the “Tubular reabsorption or secretion in the kidneys (from probenecid effect)” value ([1]; healthy rats, half-life with versus without probenecid) is reported as “tubular reabsorption or secretion is a minor factor” and the “Transcutaneous elimination (clearance) curve, in words” value ([1]; healthy rats) is reported as “did not return to background levels at 2 h post-injection”. For the same compound, the half-life [3] was 48.7 ± 5.4 min, the dose excreted ([4]; Sprague Dawley, rat, urine, iv, 2.5 mg/kg, healthy rats, i.v., mean ± SD, n = 3, read-out: Urinary recovery in 24 h) was 99.4 ± 4.8% and the dose excreted at 1 h ([4]; Sprague Dawley, rat, urine, iv, 2.5 mg/kg, individual rats, cumulative, time 1 h after i.v. injection) was 46.7%. The dose excreted at 2 h ([4]; Sprague Dawley, rat, urine, iv, 2.5 mg/kg, individual rats, cumulative, time 2 h after i.v. injection) was 65%, the dose excreted at 6 h ([4]; Sprague Dawley, rat, urine, iv, 2.5 mg/kg, individual rats, cumulative, time 6 h after i.v. injection) was 87.2% and the dose excreted at 9 h ([4]; Sprague Dawley, rat, urine, iv, 2.5 mg/kg, individual rats, cumulative, time 9 h after i.v. injection) was 96.9%. For the same compound, the dose excreted at 24 h ([4]; Sprague Dawley, rat, urine, iv, 2.5 mg/kg, individual rats, cumulative, time 24 h after i.v. injection) was 98.3%, the “Urinary recovery at 1 h” value ([4]; individual rats, cumulative, time 1 h after i.v. injection) was 53.33% and 49.29% and the “Urinary recovery at 2 h” value ([4]; individual rats, cumulative, time 2 h after i.v. injection) was 73.06%. For the same compound, the “Urinary recovery at 6 h” value ([4]; individual rats, cumulative, time 6 h after i.v. injection) was 81.95% and 89.05%, the “Urinary recovery at 9 h” value ([4]; individual rats, cumulative, time 9 h after i.v. injection) was 86.39% and the “Urinary recovery at 24 h” value ([4]; individual rats, cumulative, time 24 h after i.v. injection) was 93.3% and 106.6%. For the same compound, the fraction unbound at 24 h, 0.2 mg/mL [5] was roughly 0.8 and the PPB [6] was 19%.

For `CC1(C)C(/C=C/C=C/C=C/C=C2\N(CCCCS(=O)(=O)O)c3ccc4ccccc4c3C2(C)C)=[N+](CCCCS(=O)(=O)[O-])c2ccc3ccccc3c21` [ICG, indocyanine green], the PPB [2] is given as 99%.

`CC1(C)C(/C=C/C2=C(Nc3ccc(CCN=[N+]=[N-])cc3)C(=C/C=C3/N(CCC[N+](C)(C)C)c4ccc(S(=O)(=O)O)cc4C3(C)C)/CCC2)=[N+](CCC[N+](C)(C)C)c2ccc(S(=O)(=O)O)cc21` [AAZWCY] showed a fraction unbound at 24 h, 0.2 mg/mL [5] of 0.843.
